Results on 19 compounds are retold here after ChEMBL document CHEMBL5325442, “Diterpenoids and Their Glycosides from the Stems of Tinospora crispa with Beta-Cell Protective Activity” (2023).

Activity calls are given as the source filed them. No cut-off for these calls is given here.

Holding throughout (format): functional
For test [1], the system named is BRIN-BD11. Nature of the test: Protection against dexamethasone-induced cytotoxicity in rat BRIN-BD11 cells assessed as increase in cell viability incubated for 48 hrs by WST-1 reagent based assay. As to conditions: dose <= 50.0 µM. A general note: Tetrazolium assays rely on reduction of a dye to a coloured formazan, in cell work by metabolically active cells.
In test [2] the test system is BRIN-BD11. Put plainly: Protection against dexamethasone-induced cell cycle arrest in rat BRIN-BD11 cells assessed as restoration of dexamethasone-induced decrease in G2/M phase cells at 50 uM incubated for 48 hrs by RNase A staining based FACS analysis. For orientation: Flow cytometry measures light scatter and fluorescence of single cells or particles in a stream.

Test [3] deals with BRIN-BD11. Nature of the test: Protection against dexamethasone-induced cell cycle arrest in rat BRIN-BD11 cells assessed as restoration of dexamethasone-induced increase in G1 phase cells at 50 uM incubated for 48 hrs by RNase A staining based FACS analysis.
Test [4] concerns BRIN-BD11. Put plainly: Protection against dexamethasone-induced cell cycle arrest in rat BRIN-BD11 cells assessed as restoration of dexamethasone-induced decrease in S phase cells at 50 uM incubated for 48 hrs by RNase A staining based FACS analysis.
Test [5] deals with BRIN-BD11. Nature of the test: Protection against dexamethasone-induced cytotoxicity in rat BRIN-BD11 cells assessed as increase in cell viability at 50 uM incubated for 48 hrs by WST-1 reagent based assay.
The subject of test [6] is BRIN-BD11. Put plainly: Protection against dexamethasone-induced cytotoxicity in rat BRIN-BD11 cells assessed as increase in cell viability at 400 uM incubated for 48 hrs by WST-1 reagent based assay.

Take `COC(=O)C1=C[C@H](O)C[C@H]2[C@]3(C)C[C@@H](c4ccoc4)OC(=O)[C@H]3C[C@H](O[C@@H]3O[C@H](CO)[C@@H](O)[C@H](O)[C@H]3O)[C@@]12C`: the result in test [1] was Active.

As to `COC(=O)C1=CCC[C@H]2[C@]3(C)C[C@@H](c4ccoc4)OC(=O)[C@@H]3C[C@H](O[C@@H]3O[C@H](CO)[C@@H](O)[C@H](O)[C@H]3O)[C@@]12C`, the outcome in test [2], in test [3] and in test [4] was inactive. Moreover, in test [1], the Activity entry was “Dose-Dependent Effect”.

Turning to `C[C@@]1(CC(=O)O)[C@@H](C(=O)O)C[C@H]2OC(=O)C3=CCC[C@@H]1[C@]32C`, the outcome in test [5] was inactive.

With `COC(=O)C1=CCC[C@@H]2[C@](C)(CC(O[C@@H]3O[C@H](CO[C@@H]4O[C@H](CO)[C@@H](O)[C@H](O)[C@H]4O)[C@@H](O)[C@H](O)[C@H]3O)C3=CC(OC)OC3=O)[C@H]3C[C@H](OC3=O)[C@]12C` (some centres not stated), the result in test [5] was Active. Further, the outcome in test [2], in test [3] and in test [4] was inactive.

`COC(=O)C1=C[C@H](O)C[C@H]2[C@]3(C)C[C@@H](c4ccoc4)OC(=O)[C@@H]3C[C@@H](O[C@@H]3O[C@H](CO)[C@@H](O)[C@H](O)[C@H]3O)[C@@]12C`: the outcome in test [1] was Active.

Turning to `COC(=O)C1=CCC[C@H]2[C@]3(C)C[C@@H](c4ccoc4)OC(=O)C3=CC(O[C@@H]3O[C@H](CO)[C@@H](O)[C@H](O)[C@H]3O)[C@@]12C` (some centres not stated), the outcome in test [1] was Active.

Turning to `C[C@@]12C[C@@H](c3ccoc3)OC(=O)[C@@H]1C[C@@H](O[C@@H]1O[C@H](CO)[C@@H](O)[C@H](O)[C@H]1O)[C@@]13COC(=O)C1=CCC[C@@H]23`, the outcome in test [1] was Active.

On to `COC(=O)C1=C[C@H](O)C[C@@H]2[C@@]1(C)[C@@H](O[C@@H]1O[C@H](CO)[C@@H](O)[C@H](O)[C@H]1O)C=C1C(=O)O[C@H](c3ccoc3)C[C@]12C`, for which the result in test [5] was Active. The outcome in test [2], in test [3] and in test [4] was inactive. The Activity entry in test [1] was “Dose-Dependent Effect”.

For the compound `COC(=O)C1=CCC[C@H]2[C@](C)(C[C@H](O[C@@H]3O[C@H](CO)[C@@H](O)[C@H](O)[C@H]3O)[C@@]3(O)[C@H](OC)O[C@H](OC)[C@H]3O)[C@H]3C[C@H](OC3=O)[C@@]12C`, the outcome in test [5] was inactive.

For the compound `COC(=O)C1=CCC[C@@H]2[C@](C)(CC(O[C@@H]3O[C@H](CO)[C@@H](O)[C@H](O)[C@H]3O)C3=CC(O)OC3=O)[C@H]3C[C@H](OC3=O)[C@]12C` (some centres not stated), the result in test [1] was Active.

As to `COC(=O)C1=C[C@H](O)C[C@H]2[C@](C)(C[C@H](O[C@@H]3O[C@H](CO)[C@@H](O)[C@H](O)[C@H]3O)c3ccoc3)[C@H]3C[C@H](OC3=O)[C@@]12C`, the outcome in test [5] was Active. In addition, the result in test [2], in test [3] and in test [4] was inactive. Moreover, the Activity entry in test [1] is “Dose-Dependent Effect”.

For `C[C@]12C[C@@H](c3ccoc3)OC(=O)[C@H]1CC[C@]1(C)[C@H]2[C@H]2C=C[C@]1(O[C@@H]1O[C@H](CO)[C@@H](O)[C@H](O)[C@H]1O)C(=O)O2`, in test [5], the result was Active. Further, the result in test [2], in test [3] and in test [4] was inactive. The Activity result in test [1] was “Dose-Dependent Effect”.

`CCCCNC(=O)NS(=O)(=O)c1ccc(C)cc1`: in test [6], the result was Active.

Take `COC(=O)C1=CCC[C@H]2[C@]3(C)C[C@@H](C4=CC(O)OC4=O)OC(=O)[C@@H]3C[C@@H](O[C@@H]3O[C@H](CO)[C@@H](O)[C@H](O)[C@H]3O)[C@@]12C` (some centres not stated): in test [5], the outcome was Active.

For `COC(=O)C1=CCC[C@H]2[C@](C)(CC(O[C@@H]3O[C@H](CO)[C@@H](O)[C@H](O)[C@H]3O)c3ccoc3)[C@H]3C[C@H](OC3=O)[C@@]12C` (some centres not stated), the result in test [5] was Active. The outcome in test [2], in test [3] and in test [4] was inactive. For the same compound, in test [1], the Activity result was “Dose-Dependent Effect”.

For the compound `COC(=O)C1=CCC[C@H]2[C@]3(C)C[C@@H](C4=CC(=O)OC4O)OC(=O)[C@@H]3C[C@@H](O[C@@H]3O[C@H](CO)[C@@H](O)[C@H](O)[C@H]3O)[C@@]12C` (some centres not stated), the outcome in test [5] was Active. Also, the outcome in test [2], in test [3] and in test [4] was inactive.

`COC(=O)C1=CCC[C@H]2[C@](C)(C[C@@H](O[C@@H]3O[C@H](CO[C@@H]4O[C@H](CO)[C@@H](O)[C@H](O)[C@H]4O)[C@@H](O)[C@H](O)[C@H]3O)c3ccoc3)[C@H]3C[C@H](OC3=O)[C@@]12C`: the result in test [5] was Active. Further, the outcome in test [2], in test [3] and in test [4] was inactive.

Consider `COC(=O)C1=CCC[C@H]2[C@]3(C)C[C@@H](C4=C[C@H](OC)OC4=O)OC(=O)[C@@H]3CC(O[C@@H]3O[C@H](CO)[C@@H](O)[C@H](O)[C@H]3O)[C@@]12C` (some centres not stated), for which, in test [1], the result was Active.

Take `C[C@@]12C[C@@H](c3ccoc3)OC(=O)[C@@H]1C[C@@H]1OC(=O)[C@@]3(O)[C@@H](O[C@@H]4O[C@H](CO)[C@@H](O)[C@H](O)[C@H]4O)CC[C@@H]2[C@@]13C`: in test [1], the outcome was Active.
